According to US20250302080A1, “SWEETNESS AND/OR FLAVOR ENHANCER” (AJINOMOTO CO., INC., priority 2022, published 2025):

Tests used:
[1] = Sensory evaluation of sweetness intensity in sucralose solution (Experimental Examples 23-24); conditions: for sweetness intensity: average score; for concentration at which a sweetness-enhancing effect was confirmed: sucralose solution, added alone, 3.0 points or more
Procedure: A negative control sucralose solution (0.0140 wt % sucralose solution) was prepared by dissolving sucralose in filtered water.
(§1) A sensory evaluation of sweetness intensity was performed for each sample by a panel of four experts according to the following evaluation criteria.
Sweetness intensity was evaluated by 0.0 to 10.0 point based on the following reference samples (negative control (hereinafter referred to as NC) (0.0 point); reference 1 (hereinafter referred to as R1) (3.0 points), reference 2 (hereinafter referred to as R2) (5.0 points); reference 3 (hereinafter referred to as R3) (10.0 points)). The average score (rounded to two decimal places) of each expert panelist was calculated. An average score of 3.0 points or more was considered to be functional. • NC (0.0 point): 0.0140 wt % sucralose solution (solvent: filtered water) • R1 (3.0 points): 0.0164 wt % sucralose solution (solvent: filtered water) • R2 (5.0 points): 0.0180 wt % sucralose solution (solvent: filtered water) • R3 (10.0 points): 0.0220 wt % sucralose solution (solvent: filtered water)
A sensory evaluation of sweetness intensity was performed for each sample by a panel of four experts according to the same evaluation criteria as in Experimental Example 23.

[2] = Sensory evaluation of sweetness intensity in RebA solution, four reference samples (Experimental Examples 17-19); conditions: for concentration at which a sweetness-enhancing effect was confirmed: added alone, 3.0 points or more
Procedure: A negative control RebA solution (0.073 wt % RebA solution) was prepared by dissolving RebA in filtered water.
as §1
Sweetness intensity was evaluated by 0.0 to 10.0 points based on the following reference samples (negative control (hereinafter referred to as NC) (0.0 point); reference 1 (hereinafter referred to as R1) (3.2 points), reference 2 (hereinafter referred to as R2) (5.0 points); reference 3 (hereinafter referred to as R3) (10.0 points)). The average score (rounded to two decimal places) of each expert panelist was calculated. An average score of 3.0 points or more was considered to be functional. • NC (0.0 point): 0.073 wt % RebA solution (solvent: filtered water) • R1 (3.2 points): 0.073 wt % RebA solution (solvent: filtered water)+decanoic acid (10 ppb) • R2 (5.0 points): 0.077 wt % RebA solution (solvent: filtered water) • R3 (10.0 points): 0.080 wt % RebA solution (solvent: filtered water)
A sensory evaluation of sweetness intensity was performed for each sample by a panel of four experts according to the same evaluation criteria as in Experimental Example 17.

[3] = Sensory evaluation of sweetness intensity in aspartame solution, four reference samples (Experimental Example 22)
Procedure: A negative control aspartame solution (0.063 wt % aspartame solution) was prepared by dissolving aspartame in filtered water.
as §1
(§2) Sweetness intensity was evaluated by 0.0 to 10.0 point based on the following reference samples (negative control (hereinafter referred to as NC) (0.0 point); reference 1 (hereinafter referred to as R1) (3.2 points), reference 2 (hereinafter referred to as R2) (5.0 points); reference 3 (hereinafter referred to as R3) (10.0 points)). The average score (rounded to two decimal places) of each expert panelist was calculated. An average score of 3.0 points or more was considered to be functional. • NC (0.0 point): 0.063 wt % aspartame solution (solvent: filtered water) • R1 (3.2 points): 0.063 wt % aspartame solution (solvent: filtered water)+decanoic acid (10 ppb) • R2 (5.0 points): 0.066 wt % aspartame solution (solvent: filtered water) • R3 (10.0 points): 0.069 wt % aspartame solution (solvent: filtered water)

[4] = Sensory evaluation of sweetness intensity in RebM solution (Experimental Examples 20-21)
Procedure: A negative control RebM solution (0.063 wt % RebM solution) was prepared by dissolving RebM in filtered water.
as §1
as §2, with “to 10.0 points based on” for “to 10.0 point based on”, “as R1) (3.0 points), reference” for “as R1) (3.2 points), reference”, “wt % RebM solution (solvent:” for “wt % aspartame solution (solvent:”, “• R1 (3.0 points): 0.063” for “• R1 (3.2 points): 0.063”, “(solvent: filtered water)+dodecanoic acid (1” for “(solvent: filtered water)+decanoic acid (10”, “water)+dodecanoic acid (1 ppb) •” for “water)+decanoic acid (10 ppb) •”
A sensory evaluation of sweetness intensity was performed for each sample by a panel of four experts according to the same evaluation criteria as in Experimental Example 20.

[5] = added alone at 0.001 ppb to 0.0140 wt % sucralose solution
[6] = added alone at 0.01 ppb to 0.0140 wt % sucralose solution
[7] = added alone at 0.1 ppb to 0.0140 wt % sucralose solution
[8] = added alone at 1 ppb to 0.0140 wt % sucralose solution
[9] = added alone at 10 ppb to 0.0140 wt % sucralose solution
[10] = added alone at 100 ppb to 0.0140 wt % sucralose solution
[11] = added alone at 1000 ppb to 0.0140 wt % sucralose solution
[12] = added alone at 10000 ppb to 0.0140 wt % sucralose solution

SMILES	sweetness intensity [1, 5] [points]	sweetness intensity [1, 6] [points]	sweetness intensity [1, 7] [points]	sweetness intensity [1, 8] [points]	sweetness intensity [1, 9] [points]	sweetness intensity [1, 10] [points]	sweetness intensity [1, 11] [points]	sweetness intensity [1, 12] [points]	sweetness intensity ([2]; acid added alone at 0.001 ppb) [points]	sweetness intensity ([2]; acid added alone at 0.01 ppb) [points]	sweetness intensity ([2]; acid added alone at 0.1 ppb) [points]	sweetness intensity ([2]; acid added alone at 1 ppb) [points]	sweetness intensity ([2]; acid added alone at 10 ppb) [points]	sweetness intensity ([2]; acid added alone at 100 ppb) [points]	sweetness intensity ([2]; acid added alone at 1000 ppb) [points]	sweetness intensity ([2]; acid added alone at 10000 ppb) [points]	concentration at which a sweetness-enhancing effect was confirmed [2] [ppb]	sweetness intensity ([3]; acid added alone at 0.001 ppb) [points]	sweetness intensity ([3]; acid added alone at 0.01 ppb) [points]	sweetness intensity ([3]; acid added alone at 0.1 ppb) [points]	also measured
CCCCCCCCCCC(=O)O [undecanoic acid]	0.9	1.3	1.7	2.1	2.8	3.1	3.4	3.2	0.3	1.9	3.5	4.5	5.4	6.0	6.2	5.7	≥ 0.1	1.3	2.1	2.8	sweetness intensity ([3]; acid added alone at 1 ppb): 3.2 points; sweetness intensity ([3]; acid added alone at 10 ppb): 3.8 points; sweetness intensity ([3]; acid added alone at 100 ppb): 4.1 points; sweetness intensity ([3]; acid added alone at 1000 ppb): 4.7 points; sweetness intensity ([3]; acid added alone at 10000 ppb): 5.5 points; sweetness intensity ([4]; acid added alone at 0.001 ppb): 1.3 points; sweetness intensity ([4]; acid added alone at 0.01 ppb): 2.0 points; sweetness intensity ([4]; acid added alone at 0.1 ppb): 2.4 points; sweetness intensity ([4]; acid added alone at 1 ppb): 2.9 points; sweetness intensity ([4]; acid added alone at 10 ppb): 3.3 points; sweetness intensity ([4]; acid added alone at 100 ppb): 3.9 points; sweetness intensity ([4]; acid added alone at 1000 ppb): 4.4 points; sweetness intensity ([4]; acid added alone at 10000 ppb): 4.1 points
CCCCCCCC(=O)O [octanoic acid]	0.5	1.3	1.8	2.3	2.9	3.3	4.0	4.5	0.3	0.4	0.9	1.3	2.0	2.6	3.7	4.0	≥ 1000	0.6	1.4	2.2	sweetness intensity ([3]; acid added alone at 1 ppb): 2.9 points; sweetness intensity ([3]; acid added alone at 10 ppb): 3.4 points; sweetness intensity ([3]; acid added alone at 100 ppb): 3.9 points; sweetness intensity ([3]; acid added alone at 1000 ppb): 4.3 points; sweetness intensity ([3]; acid added alone at 10000 ppb): 4.6 points; concentration at which a sweetness-enhancing effect was confirmed ([3]; added alone, 3.0 points or more): ≥ 10 ppb; sweetness intensity ([4]; acid added alone at 0.001 ppb): 1.1 points; sweetness intensity ([4]; acid added alone at 0.01 ppb): 1.8 points; sweetness intensity ([4]; acid added alone at 0.1 ppb): 2.7 points; sweetness intensity ([4]; acid added alone at 1 ppb): 3.3 points; sweetness intensity ([4]; acid added alone at 10 ppb): 4.3 points; sweetness intensity ([4]; acid added alone at 100 ppb): 4.3 points; sweetness intensity ([4]; acid added alone at 1000 ppb): 4.4 points; sweetness intensity ([4]; acid added alone at 10000 ppb): 4.3 points
CCCCCCCCCCCC(=O)O [dodecanoic acid]	1.0	1.6	2.0	2.5	3.0	3.5	3.9	3.7	0.6	1.3	2.3	4.2	5.0	5.7	6.0	6.0	≥ 1	1.7	2.2	2.7	concentration at which a sweetness-enhancing effect was confirmed [1]: ≥ 10 ppb; sweetness intensity ([3]; acid added alone at 1 ppb): 3.3 points; sweetness intensity ([3]; acid added alone at 10 ppb): 4.2 points; sweetness intensity ([3]; acid added alone at 100 ppb): 4.9 points; sweetness intensity ([3]; acid added alone at 1000 ppb): 5.5 points; sweetness intensity ([3]; acid added alone at 10000 ppb): 6.1 points; sweetness intensity ([4]; acid added alone at 0.001 ppb): 0.8 points; sweetness intensity ([4]; acid added alone at 0.01 ppb): 1.7 points; sweetness intensity ([4]; acid added alone at 0.1 ppb): 2.5 points; sweetness intensity ([4]; acid added alone at 1 ppb): 3.0 points; sweetness intensity ([4]; acid added alone at 10 ppb): 5.0 points; sweetness intensity ([4]; acid added alone at 100 ppb): 4.6 points; sweetness intensity ([4]; acid added alone at 1000 ppb): 4.7 points; sweetness intensity ([4]; acid added alone at 10000 ppb): 4.8 points
CCCCCCCCC(=O)O [nonanoic acid]	1.3	1.8	2.4	3.0	3.5	3.9	4.3	4.2	0.7	1.0	1.8	2.8	3.3	4.0	4.8	4.4	≥ 10	0.8	2.0	2.7	concentration at which a sweetness-enhancing effect was confirmed [1]: ≥ 1 ppb; sweetness intensity ([3]; acid added alone at 1 ppb): 3.4 points; sweetness intensity ([3]; acid added alone at 10 ppb): 4.5 points; sweetness intensity ([3]; acid added alone at 100 ppb): 4.9 points; sweetness intensity ([3]; acid added alone at 1000 ppb): 5.4 points; sweetness intensity ([3]; acid added alone at 10000 ppb): 5.9 points; sweetness intensity ([4]; acid added alone at 0.001 ppb): 0.9 points; sweetness intensity ([4]; acid added alone at 0.01 ppb): 1.4 points; sweetness intensity ([4]; acid added alone at 0.1 ppb): 2.1 points; sweetness intensity ([4]; acid added alone at 1 ppb): 2.8 points; sweetness intensity ([4]; acid added alone at 10 ppb): 3.3 points; sweetness intensity ([4]; acid added alone at 100 ppb): 4.1 points; sweetness intensity ([4]; acid added alone at 1000 ppb): 4.8 points; sweetness intensity ([4]; acid added alone at 10000 ppb): 4.8 points
